From the NIST ThermoML archive (doi:10.1016/j.jct.2017.07.024)

Key:
[1] = refractive index (Na D-line) (dimensionless); wn = mass fraction of the nth substance listed; details: 100 kPa, Liquid, Standard Abbe refractometry
[2] = wn = mass fraction of the nth substance listed; details: for surface tension liquid-gas: Maximal bubble pressure; for mass density: 100 kPa, Liquid, Vibrating tube method

CCCn1cc[n+](C)c1.C[C@@H](O)[C@H](N)C(=O)[O-] [1-propyl-3-methylimidazolium DL-threoninate] + O
Details | mass density, [2] [kg/m3] | refractive index, [1] | surface tension liquid-gas, [2] [mN/m]
288.15 K, w2 = 0.0065 | 1150.46 | 1.5132 | 42
288.15 K, w2 = 0.0092 | 1150.15 | 1.5127 | 42.2
288.15 K, w2 = 0.0116 | 1149.81 | 1.5121 | 42.4
288.15 K, w2 = 0.0135 | 1149.56 | 1.5117 | 42.6
288.15 K, w2 = 0.0161 | 1149.22 | 1.5111 | 42.8
293.15 K, w2 = 0.0065 | 1147.75 | 1.5116 | 41.7
293.15 K, w2 = 0.0092 | 1147.33 | 1.5111 | 41.9
293.15 K, w2 = 0.0116 | 1146.94 | 1.5105 | 42.1
293.15 K, w2 = 0.0135 | 1146.61 | 1.5101 | 42.3
293.15 K, w2 = 0.0161 | 1146.22 | 1.5095 | 42.5
298.15 K, w2 = 0.0065 | 1143.37 | 1.5101 | 41.3
298.15 K, w2 = 0.0092 | 1142.89 | 1.5096 | 41.6
298.15 K, w2 = 0.0116 | 1142.43 | 1.509 | 41.8
298.15 K, w2 = 0.0135 | 1142.12 | 1.5086 | 42
298.15 K, w2 = 0.0161 | 1141.66 | 1.508 | 42.2
303.15 K, w2 = 0.0065 | 1139.97 | 1.5088 | 41
303.15 K, w2 = 0.0092 | 1139.49 | 1.5082 | 41.3
303.15 K, w2 = 0.0116 | 1139.07 | 1.5077 | 41.5
303.15 K, w2 = 0.0135 | 1138.7 | 1.5073 | 41.7
303.15 K, w2 = 0.0161 | 1138.27 | 1.5068 | 41.9
308.15 K, w2 = 0.0065 | 1136.59 | 1.5074 | 40.7
308.15 K, w2 = 0.0092 | 1136.11 | 1.5069 | 41
308.15 K, w2 = 0.0116 | 1135.68 | 1.5064 | 41.2
308.15 K, w2 = 0.0135 | 1135.31 | 1.5061 | 41.4
308.15 K, w2 = 0.0161 | 1134.87 | 1.5056 | 41.6
313.15 K, w2 = 0.0065 | 1133.16 | 1.506 | 40.4
313.15 K, w2 = 0.0092 | 1132.71 | 1.5055 | 40.7
313.15 K, w2 = 0.0116 | 1132.22 | 1.5052 | 40.9
313.15 K, w2 = 0.0135 | 1131.88 | 1.5048 | 41.1
313.15 K, w2 = 0.0161 | 1131.4 | 1.5044 | 41.3
318.15 K, w2 = 0.0065 | 1129.72 | 1.5044 | 40.1
318.15 K, w2 = 0.0092 | 1129.19 | 1.504 | 40.4
318.15 K, w2 = 0.0116 | 1128.78 | 1.5036 | 40.6
318.15 K, w2 = 0.0135 | 1128.43 | 1.5033 | 40.8
318.15 K, w2 = 0.0161 | 1127.95 | 1.5028 | 41.1
323.15 K, w2 = 0.0065 | 1126.27 | 1.5029 | 39.8
323.15 K, w2 = 0.0092 | 1125.8 | 1.5024 | 40.1
323.15 K, w2 = 0.0116 | 1125.32 | 1.5021 | 40.4
323.15 K, w2 = 0.0135 | 1124.96 | 1.5018 | 40.6
323.15 K, w2 = 0.0161 | 1124.48 | 1.5013 | 40.9
328.15 K, w2 = 0.0065 | 1122.82 | 1.5015 | 39.5
328.15 K, w2 = 0.0092 | 1122.34 | 1.5011 | 39.8
328.15 K, w2 = 0.0116 | 1121.86 | 1.5007 | 40.1
328.15 K, w2 = 0.0135 | 1121.5 | 1.5004 | 40.4
328.15 K, w2 = 0.0161 | 1121 | 1.4999 | 40.7
